In ChEMBL document CHEMBL4765494, “A role of flavonoids in cytochrome c-cardiolipin interactions” (Bioorg Med Chem, 2021):

How the values were obtained:
[1] = molecular target: Cytochrome c (Homo sapiens) (UniProt P99999); experiment: Inhibition of cytochrome c (unknown origin) assessed as reduction in cyt c-CL complex formation at 10 uM incubated for 15 mins in presence of cardiolipin by Trp-59 fluorescence assay relative to control
[2] = molecular target: Cytochrome c (Homo sapiens) (UniProt P99999); experiment: Inhibition of cytochrome c (unknown origin) assessed as reduction in cyt c-CL peroxidase activity at 10 uM up to 20 mins in presence of cardiolipin by Amplex red staining based fluorescence assay relative to control; conditions: time min <=20
[3] = molecular target: Cytochrome c (Homo sapiens) (UniProt P99999); experiment: Inhibition of cytochrome c (unknown origin) assessed as reduction reduction of cyt c from its ferric state to ferrous state at 10 uM incubated for 20 mins in presence of cardiolipin by UV-vis Spectrophotometric assay relative to control
[4] = molecular target: Cytochrome c (Homo sapiens) (UniProt P99999); experiment: Inhibition of cytochrome c (unknown origin) assessed as reduction reduction of cyt c from its ferric state to ferrous state incubated for 20 mins in presence of cardiolipin by UV-vis Spectrophotometric assay
[5] = molecular target: Cytochrome c (Homo sapiens) (UniProt P99999); experiment: Inhibition of cytochrome c (unknown origin) assessed as pseudo first order rate constant
[6] = Octanol-water distribution coefficient, log D of the compound at pH 7.4 after 1 hr by UV-VIS spectroscopic analysis; assay type: physicochemical
[7] = molecular target: Cytochrome c (Homo sapiens) (UniProt P99999)
Description: Inhibition of cytochrome c (unknown origin) assessed as half-time reaction

Chain of Cytochrome c (Homo sapiens) (P99999 whole entry): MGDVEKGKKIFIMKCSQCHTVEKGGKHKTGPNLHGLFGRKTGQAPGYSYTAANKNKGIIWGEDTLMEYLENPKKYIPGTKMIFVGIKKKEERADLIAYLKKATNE

SMILES	inhibition [1]	inhibition [2]	inhibition [3]	K [4]	K [5]	logD at 1 h [6]	T1/2 [7]
O=C1c2c(O)cc(O)cc2O[C@H](c2ccc(O)c(O)c2)[C@H]1O [(+)-TAXIFOLIN]	58%	67%	36%	1 M⁻¹ s⁻¹	0.067 min⁻¹	0.67	
C[C@@H]1O[C@@H](OC[C@H]2O[C@@H](Oc3c(-c4ccc(O)c(O)c4)oc4cc(O)cc(O)c4c3=O)[C@H](O)[C@@H](O)[C@@H]2O)[C@H](O)[C@H](O)[C@H]1O [RUTIN]	66%	28%	19%			-0.67	
Oc1cc(O)c2c(c1)O[C@H](c1ccc(O)c(O)c1)[C@@H](O)C2 [CIANIDANOL]		90%	61%	2 M⁻¹ s⁻¹	0.13 min⁻¹	0.01	
O=c1cc(-c2ccccc2)oc2cc(O)c(O)c(O)c12 [BAICALEIN]	91%	71%	79%			2.51	
O=c1c(O)c(-c2cc(O)c(O)c(O)c2)oc2cc(O)cc(O)c12 [MYRICETIN]	91%	81%	90%	1030 M⁻¹ s⁻¹		0.91	0.08 min
O=C1C[C@@H](c2ccccc2)Oc2ccccc21	67%	47%	12%			2.95	
C[C@@H]1O[C@@H](O[C@H]2[C@H](Oc3cc(O)c4c(c3)O[C@H](c3ccc(O)cc3)CC4=O)O[C@H](CO)[C@@H](O)[C@@H]2O)[C@H](O)[C@H](O)[C@H]1O [NARINGIN]	81%	54%	27%			-0.87	
O=c1cc(-c2ccccc2)oc2ccccc12	87%	50%	0%				
O=c1c(-c2ccc(O)cc2)coc2cc(O)cc(O)c12 [GENISTEIN]	50%	51%	0%			2.68	
O=c1c(O)c(-c2ccc(O)c(O)c2)oc2cc(O)ccc12 [FISETIN]	85%	81%	73%	220 M⁻¹ s⁻¹		2.29	
O=c1c(-c2ccc(O)cc2)coc2cc(O)ccc12		43%	5.8%				
O=C1C[C@@H](c2ccc(O)cc2)Oc2cc(O)cc(O)c21 [NARINGENIN]	60%	46%	7.3%	0.002 M⁻¹ s⁻¹		2.35	
O=C(O[C@@H]1Cc2c(O)cc(O)cc2O[C@@H]1c1cc(O)c(O)c(O)c1)c1cc(O)c(O)c(O)c1 [EPIGALOCATECHIN GALLATE]	63%	50%	62%			0.04	1.3 min
COc1ccc(-c2coc3cc(O)cc(O)c3c2=O)cc1 [BIOCHANIN]	37%	32%	23%			2.82	
COc1ccc([C@@H]2CC(=O)c3c(O)cc(O)cc3O2)cc1O [HESPERETIN]	71%	57%	7.8%	0.1 M⁻¹ s⁻¹		2.22	
O=c1cc(-c2ccc(O)c(O)c2)oc2cc(O)cc(O)c12 [LUTEOLIN]	84%	71%	32%		0.033 min⁻¹	2.7	11 min
O=c1c(O)c(-c2ccc(O)cc2)oc2cc(O)cc(O)c12 [KAEMPFEROL]	83%	70%	83%	92 M⁻¹ s⁻¹		3.39	1.2 min
